Test results from patent US20210299204A1 (priority 2020, published 2021).

Assay: Adverse outcome after a Depo-Provera shot for endometrial treatment
Conditions: inventor themself, one shot, 1987; attributed to the preservative in the drug

## CC(=O)O[C@]1(C(C)=O)CC[C@H]2[C@@H]3C[C@H](C)C4=CC(=O)CC[C@]4(C)[C@H]3CC[C@@]21C [Depo-Provera]
  adverse result of treatment: retinal atrophy
